The values below come from patent US9247759B2, “Identification of human T2R receptors that respond to bitter compounds that elicit the bitter taste in compositions, and the use thereof in assays to identify compounds that inhibit (block) bitter taste in compositions and use thereof” (SENOMYX, INC., priority 2007, dated 2016).

Molecules are shown by their SMILES.

The target of assay [1] is hT2R3 (Homo sapiens (Human), UniProt Q9NYW6). Description: hT2R panel inhibition, transient HEK293 G16g44, agonist Chloroquine pH6.5 50 μM. The settings on record: HEK293, compound at 25 μM; receptor activated to EC80 with the corresponding agonist; read-out: screening result against bitter receptor 3. The class given is cell-based. In outline:
(§1)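 Inhibition is read as loss of receptor activity caused by the test compound against an EC80 agonist challenge. Receptors from a 22-member human panel were introduced one at a time into host cells already stably expressing the chimeric G protein.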

The target of assay [2] is hT2R5 (Homo sapiens (Human), UniProt Q9NYW4). As to the kind of experiment: hT2R panel inhibition, transient HEK293 G16g44, agonist Picoline 10 mM. The class given is cell-based. The settings on record: HEK293, compound at 25 μM; receptor activated to EC80 with the corresponding agonist; read-out: screening result against bitter receptor 5. In outline: as §1
For assay [3], the target named is hT2R7 (Homo sapiens (Human), UniProt Q9NYW3). As to the kind of experiment: hT2R panel inhibition, transient HEK293 G16g44, agonist Chloroquine pH6.5 10 mM. It is filed as cell-based. The settings on record: HEK293, compound at 25 μM; receptor activated to EC80 with the corresponding agonist; read-out: screening result against bitter receptor 7. In outline: as §1

The target of assay [4] is hT2R10 (Homo sapiens (Human), UniProt Q9NYW0). As to the kind of experiment: hT2R panel inhibition, transient HEK293 G16g44, agonist Strychnine 50 μM. It is filed as cell-based. The note with it: HEK293, read-out: screening result against bitter receptor 10, compound at 25 μM; receptor activated to EC80 with the corresponding agonist.
Assay [5] deals with hT2R14 (Homo sapiens (Human), UniProt Q9NYV8). Description: hT2R panel inhibition, transient HEK293 G16g44, agonist Aristolochic Acid 2 μM. The class given is cell-based. The note with it: HEK293, compound at 25 μM; receptor activated to EC80 with the corresponding agonist; read-out: screening result against bitter receptor 14. In outline:
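Agonist challenge was at EC80, with 0.5 mM andrographolide on hT2R8 and 2 μM aristolochic acid on hT2R14. Inhibition was measured in functional assays in HEK293 cells that stably carry the promiscuous G protein G16g44 and were transiently transfected with the individual receptor.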

In assay [6] the target is hT2R16 (Homo sapiens (Human), UniProt Q9NYV7). Description: hT2R panel inhibition, transient HEK293 G16g44, agonist Salicin 1 mM. It is filed as cell-based. The note with it: HEK293, compound at 25 μM; receptor activated to EC80 with the corresponding agonist; read-out: screening result against bitter receptor 16. In a few lines:
as §1

In assay [7] the test system is hT2R44. As to the kind of experiment: hT2R panel inhibition, transient HEK293 G16g44, agonist Denatonium 0.5 μM. The settings on record: compound at 25 μM; receptor activated to EC80 with the corresponding agonist. The class given is cell-based, human. In a few lines: as §1
For assay [8], the target named is hT2R51 (Homo sapiens (Human), UniProt P59533). As to the kind of experiment: hT2R panel inhibition, transient HEK293 G16g44, agonist Prop 2.5 μM. The class given is cell-based. The note with it: HEK293, compound at 25 μM; receptor activated to EC80 with the corresponding agonist; read-out: screening result against bitter receptor 51. On the procedure: (§2) Specifically, in order to evaluate the inhibitory selectivity of the Compound C compound, this compound was tested against 22 human T2Rs which were deorphaned by Senomyx. These receptors and the bitter ligands that activate these human T2Rs are reported in earlier patent applications which are incorporated by reference herein. These 22 human T2Rs are hT2R1, 3, 4, 5, 7, 8, 9, 10, 13, 14, 16, 44, 51, 54, 55, 61, 63, 64, 65, 67, 71 and 75. The amino acid and nucleic acid sequences of all of these T2Rs may be found in these earlier patent applications. These human T2Rs were each individually transiently transfected into HEK293 cells that stably express the promiscuous G protein G16g44 and functional assays were effected using these receptors as disclosed in these same patent applications. […] The ligands were used at EC80 concentration levels. The list of bitter ligands utilized and the tested ligand concentrations are contained in Table 5 of this example.
(§3) Relating to the foregoing, FIG. 5 contains experimental results wherein Compound C was tested with different agonist compounds. The inhibition activity is represented by the reduction of receptor activity in the presence of Compound C. […] These 13 hT2Rs are hT2R3, 7, 10, 14, 16, 44, 51, 55, 61, 63, 64, 65, and 71.

The subject of assay [9] is hT2R54. As to the kind of experiment: hT2R panel inhibition, transient HEK293 G16g44, agonist Ranitidine 5 mM. It is filed as cell-based, human. The settings on record: compound at 25 μM; receptor activated to EC80 with the corresponding agonist. In outline:
as §1

Assay [10] has as its system hT2R55. As to the kind of experiment: hT2R panel inhibition, transient HEK293 G16g44, agonist Cinchonine 150 μM. The class given is cell-based, human. The note with it: compound at 25 μM; receptor activated to EC80 with the corresponding agonist. In a few lines:
as §1

The target in assay [11] is hT2R61 (Homo sapiens (Human), UniProt P59537). As to the kind of experiment: hT2R panel inhibition, transient HEK293 G16g44, agonist Aristolochic Acid 25 nM. The settings on record: HEK293, compound at 25 μM; receptor activated to EC80 with the corresponding agonist; read-out: screening result against bitter receptor 61. It is filed as cell-based. In outline: as §1
The subject of assay [12] is hT2R63. As to the kind of experiment: hT2R panel inhibition, transient HEK293 G16g44, agonist Caffeine 1 mM or Andrographolide 100 μM. It is filed as cell-based, human. The settings on record: compound at 25 μM; receptor activated to EC80 with the corresponding agonist. In a few lines: as §1
The target of assay [13] is hT2R64 (Homo sapiens (Human), UniProt P59538). As to the kind of experiment: hT2R panel inhibition, transient HEK293 G16g44, agonist Aristolochic Acid 1 μM. The class given is cell-based. The note with it: HEK293, compound at 25 μM; receptor activated to EC80 with the corresponding agonist; read-out: screening result against bitter receptor 64. In a few lines: as §1
The test system of assay [14] is hT2R65. Description: hT2R panel inhibition, transient HEK293 G16g44, agonist Oleuropein 1 mM. The class given is cell-based, human. The settings on record: compound at 25 μM; receptor activated to EC80 with the corresponding agonist. In a few lines: as §1
In assay [15] the test system is hT2R67. Description: hT2R panel inhibition, transient HEK293 G16g44, agonist Andrographolide 5 μM. It is filed as cell-based, human. The settings on record: compound at 25 μM; receptor activated to EC80 with the corresponding agonist. In outline:
as §1

The target of assay [16] is hT2R71 (Homo sapiens (Human), UniProt P59536). As to the kind of experiment: hT2R panel inhibition, transient HEK293 G16g44, agonist Picric Acid 10 μM. It is filed as cell-based. The settings on record: HEK293, compound at 25 μM; receptor activated to EC80 with the corresponding agonist; read-out: screening result against bitter receptor 71. In outline: as §1
Assay [17] concerns the target hT2R75 (Homo sapiens (Human), UniProt P59540). Description: hT2R panel inhibition, transient HEK293 G16g44, agonist Strychnine 1 μM. The settings on record: HEK293, read-out: screening result against bitter receptor 75, compound at 25 μM; receptor activated to EC80 with the corresponding agonist. The class given is cell-based. On the procedure: as §2, §3

hT2R14, sequence (Q9NYV8 whole entry): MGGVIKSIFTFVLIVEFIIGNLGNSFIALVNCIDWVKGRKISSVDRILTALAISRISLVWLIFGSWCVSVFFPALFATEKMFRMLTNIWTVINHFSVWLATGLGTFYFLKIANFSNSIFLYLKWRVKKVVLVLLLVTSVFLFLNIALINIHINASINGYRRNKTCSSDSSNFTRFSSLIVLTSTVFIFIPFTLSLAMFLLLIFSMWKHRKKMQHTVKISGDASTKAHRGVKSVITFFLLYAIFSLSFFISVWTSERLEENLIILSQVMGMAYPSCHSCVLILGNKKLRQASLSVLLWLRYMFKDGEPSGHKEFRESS
hT2R61, sequence (P59537 whole entry): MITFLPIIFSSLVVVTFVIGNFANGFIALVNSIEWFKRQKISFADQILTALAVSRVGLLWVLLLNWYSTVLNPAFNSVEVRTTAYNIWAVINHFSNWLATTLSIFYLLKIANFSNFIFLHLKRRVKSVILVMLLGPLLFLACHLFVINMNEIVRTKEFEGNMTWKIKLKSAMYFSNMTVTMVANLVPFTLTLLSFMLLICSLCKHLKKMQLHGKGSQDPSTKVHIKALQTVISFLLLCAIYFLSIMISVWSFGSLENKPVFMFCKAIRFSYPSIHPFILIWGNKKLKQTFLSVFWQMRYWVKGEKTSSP
hT2R71, sequence (P59536 whole entry): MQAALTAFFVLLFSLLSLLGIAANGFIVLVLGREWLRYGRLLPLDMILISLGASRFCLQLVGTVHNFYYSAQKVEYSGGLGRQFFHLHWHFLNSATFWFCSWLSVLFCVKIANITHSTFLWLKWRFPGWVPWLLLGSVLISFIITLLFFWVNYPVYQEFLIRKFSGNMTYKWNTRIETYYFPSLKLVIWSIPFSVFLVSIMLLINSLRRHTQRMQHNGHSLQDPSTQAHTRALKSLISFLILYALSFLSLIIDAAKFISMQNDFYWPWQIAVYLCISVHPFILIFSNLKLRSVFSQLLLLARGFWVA
hT2R16, sequence (Q9NYV7 whole entry): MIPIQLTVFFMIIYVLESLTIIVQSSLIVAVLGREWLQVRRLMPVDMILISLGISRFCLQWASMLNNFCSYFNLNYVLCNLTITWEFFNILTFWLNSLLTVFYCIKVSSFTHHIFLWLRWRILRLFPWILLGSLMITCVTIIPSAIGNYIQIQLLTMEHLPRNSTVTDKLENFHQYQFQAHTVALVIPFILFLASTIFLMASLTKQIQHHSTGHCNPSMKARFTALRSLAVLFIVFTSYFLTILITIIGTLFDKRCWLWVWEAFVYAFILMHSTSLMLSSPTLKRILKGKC
hT2R10, sequence (Q9NYW0 whole entry): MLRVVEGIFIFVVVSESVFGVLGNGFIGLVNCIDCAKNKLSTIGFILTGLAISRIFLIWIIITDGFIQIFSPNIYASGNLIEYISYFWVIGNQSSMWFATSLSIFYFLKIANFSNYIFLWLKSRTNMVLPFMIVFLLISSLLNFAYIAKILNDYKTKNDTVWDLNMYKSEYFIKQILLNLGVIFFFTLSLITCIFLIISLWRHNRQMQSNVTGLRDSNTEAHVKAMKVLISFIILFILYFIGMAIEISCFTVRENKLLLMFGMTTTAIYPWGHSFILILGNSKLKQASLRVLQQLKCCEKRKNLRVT
hT2R64, sequence (P59538 whole entry): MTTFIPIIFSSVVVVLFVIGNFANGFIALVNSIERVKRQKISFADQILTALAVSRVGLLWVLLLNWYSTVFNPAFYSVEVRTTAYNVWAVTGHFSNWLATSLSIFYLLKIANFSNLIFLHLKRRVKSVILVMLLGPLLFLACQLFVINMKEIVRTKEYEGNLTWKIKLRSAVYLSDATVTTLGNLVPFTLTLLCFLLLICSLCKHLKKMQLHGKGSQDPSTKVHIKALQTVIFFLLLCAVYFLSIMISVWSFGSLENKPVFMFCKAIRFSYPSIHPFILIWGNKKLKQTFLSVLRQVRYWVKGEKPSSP
hT2R51, sequence (P59533 whole entry): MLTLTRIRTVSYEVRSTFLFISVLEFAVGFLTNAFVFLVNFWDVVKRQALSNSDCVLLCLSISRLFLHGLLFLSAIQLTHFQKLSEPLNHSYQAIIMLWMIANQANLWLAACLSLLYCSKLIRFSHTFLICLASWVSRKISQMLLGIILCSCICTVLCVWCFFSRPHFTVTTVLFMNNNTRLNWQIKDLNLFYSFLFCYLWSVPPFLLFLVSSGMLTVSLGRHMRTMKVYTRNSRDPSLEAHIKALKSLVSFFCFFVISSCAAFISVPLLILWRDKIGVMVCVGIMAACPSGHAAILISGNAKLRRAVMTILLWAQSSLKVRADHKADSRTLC
hT2R7, sequence (Q9NYW3 whole entry): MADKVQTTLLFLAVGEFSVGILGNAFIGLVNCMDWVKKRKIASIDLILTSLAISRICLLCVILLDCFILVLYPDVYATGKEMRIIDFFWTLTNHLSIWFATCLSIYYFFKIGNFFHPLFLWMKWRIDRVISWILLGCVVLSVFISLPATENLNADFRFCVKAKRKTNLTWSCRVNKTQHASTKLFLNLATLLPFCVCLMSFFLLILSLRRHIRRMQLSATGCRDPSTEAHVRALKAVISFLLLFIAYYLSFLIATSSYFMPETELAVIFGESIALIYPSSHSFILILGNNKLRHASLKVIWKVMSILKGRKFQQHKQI
hT2R3, sequence (Q9NYW6 whole entry): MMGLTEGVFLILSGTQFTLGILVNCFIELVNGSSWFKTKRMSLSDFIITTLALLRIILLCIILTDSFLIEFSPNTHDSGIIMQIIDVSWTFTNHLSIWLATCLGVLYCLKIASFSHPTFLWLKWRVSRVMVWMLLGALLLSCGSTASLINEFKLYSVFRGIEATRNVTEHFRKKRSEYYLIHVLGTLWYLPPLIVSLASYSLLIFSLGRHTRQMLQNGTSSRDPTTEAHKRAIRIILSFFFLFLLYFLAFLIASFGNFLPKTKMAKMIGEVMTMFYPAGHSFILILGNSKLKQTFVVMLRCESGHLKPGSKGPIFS
hT2R75, sequence (P59540 whole entry): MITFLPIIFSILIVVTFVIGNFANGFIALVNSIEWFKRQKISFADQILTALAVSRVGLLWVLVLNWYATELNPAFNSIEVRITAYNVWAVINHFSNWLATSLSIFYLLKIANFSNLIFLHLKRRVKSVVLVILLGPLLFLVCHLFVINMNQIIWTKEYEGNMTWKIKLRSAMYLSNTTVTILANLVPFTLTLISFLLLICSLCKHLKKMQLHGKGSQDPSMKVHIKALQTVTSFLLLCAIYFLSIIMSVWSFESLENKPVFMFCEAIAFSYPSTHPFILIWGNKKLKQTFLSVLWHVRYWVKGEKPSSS
hT2R5, sequence (Q9NYW4 whole entry): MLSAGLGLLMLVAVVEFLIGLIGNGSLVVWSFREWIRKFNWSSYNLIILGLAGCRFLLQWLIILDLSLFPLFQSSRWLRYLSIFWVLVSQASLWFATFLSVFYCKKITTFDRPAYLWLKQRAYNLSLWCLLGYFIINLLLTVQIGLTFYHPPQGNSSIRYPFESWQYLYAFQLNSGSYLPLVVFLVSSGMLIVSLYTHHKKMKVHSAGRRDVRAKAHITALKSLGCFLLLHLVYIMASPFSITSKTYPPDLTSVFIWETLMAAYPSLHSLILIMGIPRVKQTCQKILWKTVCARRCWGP

On to `COc1ccc(CN(Cc2ccccc2OC)S(=O)(=O)c2ccc(C(=O)O)cc2)cc1` [Example 5-58, 4-(N-(2-methoxybenzyl)-N-(4-methoxybenzyl)sulfamoyl)benzoic acid], for which the inhibition at 25 µM is 60 to 80% in assay [1]; 20 to 40% in assay [2]; 60 to 80% in [3]; 60 to 80% in assay [4]; above 80% in assay [5]; 20 to 40% in [6]. The inhibition at 25 µM in assay [8] is 20 to 40%; in assay [11] it was above 80%; in [13], 60 to 80%; in assay [16] it was above 80%; in [17] it was 20 to 40%. Further, the “screening result against bitter receptor 44” value in assay [7] was “+++ (60% to 80% inhibition = +++)”. The “screening result against bitter receptor 54” value in assay [9] was “+++ (60% to 80% inhibition = +++)”. For the same compound, in assay [10], the “screening result against bitter receptor 55” value is “+++ (60% to 80% inhibition = +++)”. In [12], the “screening result against bitter receptor 63” value was “++++ (80% or greater inhibition = ++++)”. In addition, the “screening result against bitter receptor 65” value in assay [14] is recorded as “++++ (80% or greater inhibition = ++++)”. Moreover, the “screening result against bitter receptor 67” value in assay [15] is recorded as “+ (20% to 40% inhibition = +)”.

On to `COc1ccccc1CN(Cc1ccccc1)S(=O)(=O)c1ccc(C(=O)O)cc1` [Example 5-71, 4-(N-benzyl-N-(2-methoxybenzyl)sulfamoyl)benzoic acid], for which the inhibition at 25 µM in [1] is 20 to 40%; in [2], 20 to 40%; in assay [3] it was 20 to 40%; in assay [4], 20 to 40%; in assay [5] it was above 80%; in [6], 20 to 40%. The inhibition at 25 µM in assay [8] was 40 to 60%; in assay [11], above 80%; in assay [13], 20 to 40%; in [16], 40 to 60%; in [17] it was 20 to 40%. For the same compound, the “screening result against bitter receptor 54” value in assay [9] was “+++ (60% to 80% inhibition = +++)”. In [10], the “screening result against bitter receptor 55” value is listed as “++ (40% to 60% inhibition = ++)”. The “screening result against bitter receptor 63” value in assay [12] was “++++ (80% or greater inhibition = ++++)”. Further, the “screening result against bitter receptor 65” value in [14] is reported as “++ (40% to 60% inhibition = ++)”. Besides, the “screening result against bitter receptor 67” value in [15] is “+ (20% to 40% inhibition = +)”.

With `Cc1cccc(CN(Cc2ccccc2)S(=O)(=O)c2ccc(C(=O)O)cc2)c1` [Example 5-73, 4-(N-benzyl-N-(3-methylbenzyl)sulfamoyl)benzoic acid], the inhibition at 25 µM was 40 to 60% in assay [1]; 20 to 40% in assay [2]; 20 to 40% in assay [3]; 40 to 60% in [4]; above 80% in assay [5]; 20 to 40% in assay [6]. For the same compound, the inhibition at 25 µM in assay [8] is above 80%; in [11] it was 60 to 80%; in assay [13], 20 to 40%; in assay [16], 40 to 60%; in assay [17] it was 20 to 40%. Moreover, the “screening result against bitter receptor 54” value in [9] is on record as “+++ (60% to 80% inhibition = +++)”. Besides, the “screening result against bitter receptor 55” value in assay [10] is listed as “++ (40% to 60% inhibition = ++)”. Besides, in assay [12], the “screening result against bitter receptor 63” value is “++++ (80% or greater inhibition = ++++)”. Further, in assay [14], the “screening result against bitter receptor 65” value is “++ (40% to 60% inhibition = ++)”. Moreover, the “screening result against bitter receptor 67” value in assay [15] is “+ (20% to 40% inhibition = +)”.
